Data published in patent EP4741395A1, “NOVEL COMPOUND SENSITIVE TO NITROGEN MONOXIDE AND PHARMACEUTICAL COMPOSITION COMPRISING SAME” (Omniamed Co. Ltd, priority 2023, dated 2025).

Experiments:
[1] = Hematological toxicity evaluation after single oral administration (routine blood test); settings: mice, two days after administration
[2] = Efficacy on collagen-induced rheumatoid arthritis (arthritis score); format: in vivo, DBA/1 male mice
Description: (§1) The experimental animals were 30 8-week-old DBA/1 male mice. […] The number of normal mice was set to five in order to minimize the number of experimental animals. The group administered with Compound (1) consisted of 5 to 6 mice, a minimal number required to obtain statistically meaningful data given the limited amount of the drug.
(§2) In order to establish a rheumatoid arthritis model, 100 µL of a mixture solution in which 2 mg/mL of chick type II collagen and 1 mg/mL of Complete Freund's Adjuvant (CFA) were mixed in a ratio of 1:1 was administered intradermally to each of the mouse tails. After 19 days, 100 µL of an emulsion in which 2 mg/mL of chick type II collagen and Incomplete Freund's Adjuvant (IFA) were mixed in a ratio of 1:1 was administered intradermally to each of the mouse tails.
The test substances of Table 23 were administered orally every day according to the drug dosing period and dosing frequency. As for the rheumatoid arthritis score (arthritis score), the score of each of the four paws was quantified according to the criteria shown in the following Table 24, and the individual scores were summed to generate the final score.
as §1, with “31” for “30”, “(11)” for “(1)”, “5” for “5 to 6”, “drug. Each of the remaining groups consisted of 7 mice, with two extra mice added to account for experimental error.” for “drug.”
as §2
Oral administration was conducted daily according to the dose, dosing frequency and dosing period of Table 25. Based on the criteria shown in Table 24, rheumatoid arthritis score for the four paws were quantified and summed to generate the score.

[3] = mouse, in vivo, po, 800 mg/kg
[4] = in vivo; settings: male, C57BL/6, mouse, in vivo, po
Description: Specifically, the experimental animals were twelve six-week-old C57BL/6 male mice. The experimental animals were housed in polycarbonate cages in groups of four, and had free access to food and water. The animal housing room was maintained at a temperature of 20±1°C and humidity of about 50±5%, with a constant 12-hour light/dark cycle. The experimental animals were acclimated to the animal room environment for one week, and then randomly divided into three groups of four animals each based on body weight.

SMILES: C[C@@H]1CCN(C(=O)CC#N)C[C@@H]1N(C)c1ncnc2[nH]ccc12 [Tofacitinib, tofacitinib]
- WBC Differential Counting (LYM) (% of Normal) ([1]; 200 mg/kg single oral dose): 81.1±31.3 % of Normal
- WBC Differential Counting (NEU) (% of Normal) ([1]; 200 mg/kg single oral dose): 68.3±15.7 % of Normal
- WBC (% of Normal) ([1]; 800 mg/kg single oral dose): 62.1±4.7 % of Normal
- WBC Differential Counting (LYM) (% of Normal) ([1]; 800 mg/kg single oral dose): 61.2±4.6 % of Normal
- WBC Differential Counting (NEU) (% of Normal) ([1]; 800 mg/kg single oral dose): 56.4±7.9 % of Normal
- rheumatoid arthritis-alleviating efficacy (arthritis score) ([2]; 10 mg/kg oral twice daily (BID), day 39 (p<0.05) and day 40 (p<0.01), FIG. 7): Statistically significant rheumatoid arthritis-alleviating efficacy was observed
- rheumatoid arthritis-alleviating efficacy (arthritis score) ([2]; 40 mg/kg oral once daily, from day 33 after disease induction (p<0.01) to the end, FIG. 6): statistically significant rheumatoid arthritis-alleviating efficacy was observed
- hematological toxicity [3]: hematological toxicity was observed
- MTD at 4 days [4]: 400 mg/kg
